The results in this text go back to patent US20260152487A1 (Sitryx Therapeutics Limited, priority 2021, published 2026).

One experiment has as its target T1, recombinant human PKM2 (Homo sapiens, UniProt P14618).
T1 construct: His (N); purchased R&D Systems
The experiment in a line: Human PKM2 activation assay (Kinase-Glo Plus luminescent detection of generated ATP). Type of experiment: biochemical. The conditions noted are these: for Emax: read-out: hPKM2 Emax; for EC50: read-out: hPKM2 EC50. The procedure, abridged: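 N-His-tagged recombinant hPKM2 ([…]) with PEP and ADP was incubated with compound for 60 min at 26 °C, shaking, in 50 mM imidazole, 50 mM KCl, 7 mM MgCl2, 0.01% Tween20, 0.05% BSA, pH 7.2. ATP produced was read by Kinase-Glo Plus luminescence after 15 min.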
For orientation: In Kinase-Glo more light means more ATP remaining.

The next experiment addresses T2, recombinant human PKLR (Homo sapiens, UniProt P30613).
T2 construct: His (N); purchased R&D Systems
Put plainly: Human PKLR activation assay (Kinase-Glo Plus luminescent detection of generated ATP). The format is biochemical. Particulars: for EC50: read-out: hPKLR EC50; for Emax: read-out: hPKLR Emax (%). As for the experimental part:
Compound activation of recombinant human PKLR pyruvate kinase activity was determined by biochemical assay. N-terminal His-tagged enzyme was sourced from R&D Systems and its substrates phosphoenolpyruvate (PEP) and ADP from Sigma-Aldrich and 2Bscientific Ltd, respectively. The Kinase-Glo® Plus luminescence assay was from Promega. All other reagents were from Sigma-Aldrich. Test Compounds were prepared as 10 mM DMSO stocks and dilution series prepared in DMSO for direct dilution into Assay Buffer comprising 50 mM imidazole, 50 mM KCl, 7 mM MgCl2, 0.01% Tween20, 0.05% BSA (pH 7.2).
Human PKLR was diluted into Assay Buffer to a final concentration of 5 pM. Enzyme-Assay Buffer mix was dispensed into 384-well shallow-well white-walled plates and Test Compounds added by acoustic dispense (Echo®, Labcyte Inc).
After 60 minutes' incubation on an orbital shaker (300 rpm, 26° C.), enzyme activity was quantified by the luminescent detection of generated ATP. Kinase-Glo® Plus reagent was added to each well and the plates incubated for a further 15 minutes on an orbital shaker in the dark (300 rpm, 26° C.) before luminescence measurement on a plate reader (PHERAstar® FSX, BMG Labtech).
Percentage activation was calculated by normalising […] signals to plate LOW (DMSO vehicle) and HIGH (5 μM TEPP-46) controls. EC50 and Emax values were determined from 4-parameter logistic fits of compound concentration-response curves.

The mark [1] stands for this setting: percentage activation normalised to DMSO vehicle (LOW) and 5 μM TEPP-46 (HIGH).
[2] abbreviates: recombinant human PKM2 activation, 4-parameter logistic fit.
Setting [3] is: activation of recombinant human PKLR, 4-parameter logistic fit.
Setting [4] is: percentage activation normalised to DMSO vehicle (LOW) and 5 μM TEPP-46 (HIGH) controls.

Where two headings read alike, the source gives them in different places.

T1 sequence (P14618 2-531 limits assumed): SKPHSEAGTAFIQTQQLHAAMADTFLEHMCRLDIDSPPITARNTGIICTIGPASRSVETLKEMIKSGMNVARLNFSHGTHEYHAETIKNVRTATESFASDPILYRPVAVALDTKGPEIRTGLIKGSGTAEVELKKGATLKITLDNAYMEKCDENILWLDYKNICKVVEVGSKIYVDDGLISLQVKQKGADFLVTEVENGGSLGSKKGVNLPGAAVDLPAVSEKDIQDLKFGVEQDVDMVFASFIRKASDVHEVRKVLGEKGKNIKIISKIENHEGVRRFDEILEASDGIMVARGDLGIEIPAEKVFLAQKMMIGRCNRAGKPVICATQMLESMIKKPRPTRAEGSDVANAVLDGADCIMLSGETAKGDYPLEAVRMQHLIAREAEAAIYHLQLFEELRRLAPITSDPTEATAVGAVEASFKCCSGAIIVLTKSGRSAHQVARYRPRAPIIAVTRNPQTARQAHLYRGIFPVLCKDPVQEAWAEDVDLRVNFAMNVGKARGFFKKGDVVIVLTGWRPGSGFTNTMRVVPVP
T2 sequence (P30613 whole entry): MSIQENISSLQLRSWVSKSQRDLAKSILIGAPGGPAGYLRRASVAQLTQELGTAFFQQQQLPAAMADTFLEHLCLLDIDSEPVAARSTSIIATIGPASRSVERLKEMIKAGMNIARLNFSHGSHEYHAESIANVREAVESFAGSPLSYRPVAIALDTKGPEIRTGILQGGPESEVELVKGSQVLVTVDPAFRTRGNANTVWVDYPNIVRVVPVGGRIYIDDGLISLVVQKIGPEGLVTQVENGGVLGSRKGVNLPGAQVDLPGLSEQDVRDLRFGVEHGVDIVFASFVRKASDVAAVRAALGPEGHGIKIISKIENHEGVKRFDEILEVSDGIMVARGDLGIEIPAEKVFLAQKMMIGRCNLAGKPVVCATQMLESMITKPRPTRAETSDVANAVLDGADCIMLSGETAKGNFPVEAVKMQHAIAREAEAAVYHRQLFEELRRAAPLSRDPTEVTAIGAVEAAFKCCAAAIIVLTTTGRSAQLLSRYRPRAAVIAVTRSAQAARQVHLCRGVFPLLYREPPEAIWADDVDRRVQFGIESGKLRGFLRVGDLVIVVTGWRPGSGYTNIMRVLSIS

For the molecule `O=c1c2ccc(S(=O)(=O)c3cnn(CCO)c3)cc2cnn1Cc1cc[nH]n1` [Example 241, 2-((1H-pyrazol-3-yl)methyl)-6-((1-(2-hydroxyethyl)-1H-pyrazol-4-yl)sulfonyl)phthalazin-1(2H)-one], the Emax (commonly the maximal effect, on the per cent scale that the assay sets) at recombinant human PKM2 (setting [1]) was 106%; on recombinant human PKLR (setting [4]) it was 129%. Also, the EC50 – broadly, the concentration needed to bring the measured effect to its halfway point – was 0.118 µM at recombinant human PKM2 (setting [2]) and 0.0275 µM on recombinant human PKLR (setting [3]).

With `O=c1c2ccc(S(=O)(=O)c3cnc4occc4c3)cc2cnn1Cc1cc[nH]n1` [Example 225, 2-((1H-pyrazol-3-yl)methyl)-6-(furo[2,3-b]pyridin-5-ylsulfonyl)phthalazin-1(2H)-one], the Emax was found to be 114% at recombinant human PKM2 (setting [1]) and 117% at recombinant human PKLR (setting [4]). Also, the EC50 was determined as 0.0503 µM on recombinant human PKM2 (setting [2]) and 0.0086 µM on recombinant human PKLR (setting [3]).

Consider `COc1ccc(S(=O)(=O)c2ccc3c(=O)n(Cc4cccn(CCO)c4=O)ncc3c2)cc1` [Example 5, 2-((1-(2-hydroxyethyl)-2-oxo-1,2-dihydropyridin-3-yl)methyl)-6-(4-methoxyphenylsulfonyl)phthalazin-1(2H)-one], for which the Emax is 102% at recombinant human PKM2 (setting [1]) and 111% at recombinant human PKLR (setting [4]). Besides, the values for the EC50 at recombinant human PKM2 (setting [2]) and on recombinant human PKLR (setting [3]) were 0.0607 µM and 0.0193 µM, respectively.

For `O=c1c2ccc(S(=O)(=O)c3cn[nH]c3)cc2cnn1Cc1ccc2c(n1)CCO2` [Example 253, 6-(1H-pyrazol-4-ylsulfonyl)-2-((2,3-dihydrofuro[3,2-b]pyridin-5-yl)methyl)phthalazin-1(2H)-one], the EC50 is 0.0216 µM at recombinant human PKM2 (data from repeat experiments (*)), 0.0201 µM on recombinant human PKM2 (setting [2]), 0.00432 µM at recombinant human PKLR (* data from repeat experiments) and 0.00559 µM at recombinant human PKLR (setting [3]). Further, the Emax at recombinant human PKM2 (line of the repeat experiment (EC50 marked *)) amounted to 105%; on recombinant human PKM2 (setting [1]) it was 104%; at recombinant human PKLR (line of the repeat experiments (EC50 marked *)) it was 118%; on recombinant human PKLR (setting [4]), 107%.

As for `Cc1nc(Cn2ncc3cc(S(=O)(=O)c4cn[nH]c4)ccc3c2=O)ccc1F` [Example 251, 6-((1H-pyrazol-4-yl)sulfonyl)-2-((5-fluoro-6-methylpyridin-2-yl)methyl)phthalazin-1(2H)-one], the Emax on recombinant human PKM2 (setting [1]) stood at 116%; at recombinant human PKLR (setting [4]), 111%. Besides, the concentration for a half-maximal effect (EC50) on recombinant human PKM2 (setting [2]) amounted to 0.111 µM; at recombinant human PKLR (setting [3]), 0.0113 µM.

Take `O=c1c2ccc(S(=O)(=O)c3ccc4c(c3)NCCO4)cc2cnn1Cc1cc[nH]n1` [Example 221, 2-((1H-pyrazol-3-yl)methyl)-6-((3,4-dihydro-2H-benzo[b][1,4]oxazin-6-yl)sulfonyl)phthalazin-1(2H)-one]: the Emax on recombinant human PKM2 (setting [1]) came to 105%; on recombinant human PKLR (setting [4]), 134%. The EC50 at recombinant human PKM2 (setting [2]) is 0.0428 µM; on recombinant human PKLR (setting [3]), 0.0034 µM.

As to `O=c1c2ccc(S(=O)(=O)c3ccc4c(c3)OCCO4)cc2cnn1Cc1cc[nH]n1` [Example 207, 2-((1H-pyrazol-3-yl)methyl)-6-((2,3-dihydrobenzo[b][1,4]dioxin-6-yl)sulfonyl)phthalazine-1(2H)-one], the Emax at recombinant human PKM2 (setting [1]) stood at 99.9%; on recombinant human PKLR (setting [4]) it was 123%. The values for the EC50 at recombinant human PKM2 (setting [2]) and at recombinant human PKLR (setting [3]) were 0.0333 µM and 0.0042 µM, respectively.

In the case of `O=c1c2ccc(S(=O)(=O)c3ccc4c(c3)NCCO4)cc2cnn1Cc1ccn(CCO)n1` [Example 202, 6-((3,4-dihydro-2H-benzo[b][1,4]oxazin-6-yl)sulfonyl)-2-((1-(2-hydroxyethyl)-1H-pyrazol-3-yl)methyl)phthalazin-1(2H)-one], the results for the Emax on recombinant human PKM2 (setting [1]) and on recombinant human PKLR (setting [4]) were 109% and 125%, respectively. The concentration for a half-maximal effect (EC50) stood at 0.0917 µM on recombinant human PKM2 (setting [2]) and 0.0079 µM on recombinant human PKLR (setting [3]).

As to `COc1ccc(S(=O)(=O)c2ccc3c(=O)n(Cc4cccc(N)c4)ncc3c2)cc1` [Example 142, 2-(3-aminobenzyl)-6-((4-methoxyphenyl)sulfonyl)phthalazin-1(2H)-one], the results for the Emax at recombinant human PKM2 (setting [1]) and on recombinant human PKLR (setting [4]) were 112% and 108%, respectively. Further, the figures for the EC50 on recombinant human PKM2 (setting [2]) and on recombinant human PKLR (setting [3]) were 0.0258 µM and 0.0041 µM, respectively.

As for `O=c1c2ccc(S(=O)(=O)c3cnn(CCO)c3)cc2cnn1Cc1ccc2c(n1)CCO2` [Example 309], the EC50 at recombinant human PKM2 (setting [2]) was 0.0504 µM; at recombinant human PKLR (setting [3]), 0.00658 µM.

On to `Cc1cccc(Cn2ncc3cc(S(=O)(=O)c4cc[nH]n4)ccc3c2=O)n1` [Example 239, 6-((1H-pyrazol-3-yl)sulfonyl)-2-((6-methylpyridin-2-yl)methyl)phthalazin-1(2H)-one], for which the Emax at recombinant human PKM2 (setting [1]) worked out at 106%; on recombinant human PKLR (setting [4]), 135%. In addition, the EC50 on recombinant human PKM2 (setting [2]) came to 0.109 µM; at recombinant human PKLR (setting [3]) it was 0.0248 µM.

For `Cn1ccc(Cn2ncc3cc(S(=O)(=O)c4ccccc4)c(F)cc3c2=O)n1` [Example 242, 7-fluoro-2-((1-methyl-1H-pyrazol-3-yl)methyl)-6-(phenylsulfonyl)phthalazin-1(2H)-one], the Emax at recombinant human PKM2 (setting [1]) was determined as 107%; at recombinant human PKLR (setting [4]), 134%. Besides, the results for the EC50 at recombinant human PKM2 (setting [2]) and at recombinant human PKLR (setting [3]) were 0.102 µM and 0.0222 µM, respectively.

Consider `O=c1c2ccc(S(=O)(=O)c3cnn(CCO)c3)cc2cnn1Cc1ccn(C2CC2)n1` [Example 272, 2-((1-cyclopropyl-1H-pyrazol-3-yl)methyl)-6-((1-(2-hydroxyethyl)-1H-pyrazol-4-yl)sulfonyl)phthalazin-1(2H)-one], for which the Emax at recombinant human PKM2 (setting [1]) worked out at 91.3%; on recombinant human PKLR (setting [4]) it was 124%. Besides, the figures for the concentration for a half-maximal effect (EC50) at recombinant human PKM2 (setting [2]) and at recombinant human PKLR (setting [3]) were 0.0934 µM and 0.0391 µM, respectively.

In the case of `Cn1cc(S(=O)(=O)c2ccc3c(=O)n(Cc4cccc(C5CC5)n4)ncc3c2)cn1` [Example 275, 2-((6-cyclopropylpyridin-2-yl)methyl)-6-((1-methyl-1H-pyrazol-4-yl)sulfonyl)phthalazin-1(2H)-one], the Emax on recombinant human PKM2 (setting [1]) came out at 95.9%; at recombinant human PKLR (setting [4]), 120%. In addition, the EC50 on recombinant human PKM2 (setting [2]) amounted to 0.0505 µM; at recombinant human PKLR (setting [3]), 0.0195 µM.

On to `COc1ccc([S@@](=N)(=O)c2ccc3c(=O)n(Cc4ccc(OC)nc4)ncc3c2)cc1` (single isomer, unassigned) [Example 138], for which the Emax on recombinant human PKM2 (setting [1]) stood at 91.2%; at recombinant human PKLR (setting [4]), 133%. Moreover, the values for the EC50 at recombinant human PKM2 (setting [2]) and at recombinant human PKLR (setting [3]) were 0.0856 µM and 0.014 µM, respectively.

`O=c1c2cc(NCCO)c(S(=O)(=O)c3ccccc3)cc2cnn1Cc1ccn(C2CC2)n1` [Example 265, 2-((1-cyclopropyl-1H-pyrazol-3-yl)methyl)-7-((2-hydroxyethyl)amino)-6-(phenylsulfonyl)phthalazin-1(2H)-one]: the Emax at recombinant human PKM2 (setting [1]) came to 114%; at recombinant human PKLR (setting [4]) it was 127%. Further, the results for the EC50 on recombinant human PKM2 (setting [2]) and on recombinant human PKLR (setting [3]) were 0.134 µM and 0.0135 µM, respectively.

For `COc1ccc(Cn2ncc3cc([S@@](=N)(=O)c4ccc5c(c4)CCO5)ccc3c2=O)cn1` (single isomer, unassigned) [Example 128], the figures for the Emax at recombinant human PKM2 (setting [1]) and on recombinant human PKLR (setting [4]) were 80.8% and 132%, respectively. Besides, the EC50 is 0.0345 µM on recombinant human PKM2 (setting [2]) and 0.0072 µM at recombinant human PKLR (setting [3]).

Consider `Cn1ccc(Cn2ncc3cc(S(=O)(=O)c4cnn(C5CC5)c4)ccc3c2=O)n1` [Example 194, 6-(1-cyclopropyl-1H-pyrazol-4-ylsulfonyl)-2-((1-methyl-1H-pyrazol-3-yl)methyl)phthalazin-1(2H)-one], for which the Emax came out at 113% on recombinant human PKM2 (setting [1]) and 112% on recombinant human PKLR (setting [4]). Moreover, the EC50 was 0.0774 µM on recombinant human PKM2 (setting [2]) and 0.106 µM on recombinant human PKLR (setting [3]).

`O=c1c2ccc(S(=O)(=O)c3ccc4c(c3)OCCO4)cc2cnn1Cc1ccn(CCO)n1` [Example 206, 6-((2,3-dihydrobenzo[b][1,4]dioxin-6-yl)sulfonyl)-2-((1-(2-hydroxyethyl)-1H-pyrazol-3-yl)methyl)phthalazin-1(2H)-one]: the Emax at recombinant human PKM2 (setting [1]) worked out at 98.7%; at recombinant human PKLR (setting [4]), 128%. Moreover, the EC50 turned out to be 0.05 µM at recombinant human PKM2 (setting [2]) and 0.0103 µM at recombinant human PKLR (setting [3]).

Consider `COc1ccc([S@](=N)(=O)c2ccc3c(=O)n(Cc4ccc(OC)nc4)ncc3c2)cc1` (single isomer, unassigned) [Example 192], for which the “hPKM2 Emax” value at recombinant human PKM2 (setting [1]) amounted to 59.1%. The EC50 on recombinant human PKM2 (setting [2]) stood at 0.106 µM; at recombinant human PKLR (setting [3]), 0.241 µM. For the same molecule, at recombinant human PKLR (setting [4]), the Emax turned out to be 129%.

`COc1ccc(Cn2ncc3cc(S(=O)(=O)c4cnn(CCO)c4)ccc3c2=O)cn1` [Example 271, 6-((1-(2-hydroxyethyl)-1H-pyrazol-4-yl)sulfonyl)-2-((6-methoxypyridin-3-yl)methyl)phthalazin-1(2H)-one]: the Emax amounted to 81.3% at recombinant human PKM2 (setting [1]) and 119% at recombinant human PKLR (setting [4]). The EC50 at recombinant human PKM2 (setting [2]) came out at 0.0545 µM; at recombinant human PKLR (setting [3]), 0.0264 µM.
